Measured values taken from patent publication US11926845B2, “Cell culture method and automatic cell culture apparatus” (Hitachi, Ltd., priority 2020, dated 2024).

Key:
[1] = system: 253G1 strain; experiment: hCG secretion into culture supernatant (ELISA) of 253G1 strain cultured on coated planar mesh; assay type: cell-based, human; conditions: for secretion amount of hCG, increase as compared with the case where the ROCK inhibitor was not added / secretion amount of hCG, course after the increase: 253G1 strain; for secretion amount of hCG, course after the increase: after Day 17
Description: Preparation of the cell culture substrate and seeding of the iPS cells were carried out in the same manner as in the second example. After 24 hours from seeding, a total amount of iPS cell suspension was removed and replaced with a new Essential 8 medium, so that the ROCK inhibitor was completely removed once. Then, every 4 days, half the amount of the culture supernatant was recovered, and the amount of culture supernatant was maintained by adding a new Essential 8 medium in an amount equal to a removed amount. The ROCK inhibitor (Y-27632, Wako Pure Chemical Co.) was added to a part of the medium of the cell culture substrate on which the 253G1 strain is seeded from Day 9 of culturing or Day 13 of the culturing so that a final concentration was 20 μM, and the culturing was performed for 3 weeks.
The secretion amount of hCG, which is one of trophoblast differentiation markers, was quantified by using the recovered culture supernatant. For the quantification, the value of OD450 was detected by an absorbance plate reader (Corona Electric Co.) by using a Human hCG ELISA Kit (Abcam Co.). Details of an ELISA reaction and a measurement method followed a manual of a kit.

[2] = system: human iPS cells (201B7 strain); experiment: hCG secretion into culture supernatant (ELISA) of 201B7 strain cultured on coated planar mesh; assay type: cell-based
Description: In the present example, the human iPS cells (201B7 strain) were cultured by using a culture substrate in which the planar mesh made of nickel was coated with parylene or Au, and an effect of the ROCK inhibitor on cell differentiation was investigated.
A cell culture substrate was prepared in the same procedure as in the first example. The i-Matrix (Nippi Inc.) adjusted to a concentration of 50 ng/μl as a scaffold material of cells was added so as to cover the mesh and the mixture was treated at 4° C. for 3 days. Thereafter, after i-Matrix was removed, and the washing was performed with an Essential 8 medium (GIBCO Co.), the human iPS cells (201B7 strain) was adjusted in the Essential 8 medium so as to be 1×10^5/ml, and an iPS cell suspension containing 10 μM of the ROCK inhibitor (Y-27632, Wako Pure Chemical Co.) was added on the mesh in the same manner as the scaffold material, and the cells were incubated at 37° C. in the cell culture apparatus adjusted to the CO2 concentration of 5%.
After 24 hours from seeding, a total amount of iPS cell suspension was removed and replaced with a new Essential 8 medium, so that the ROCK inhibitor was completely removed once. Then, every 4 days, half the amount of culture supernatant was recovered, and the amount of culture supernatant was maintained by adding a new Essential 8 medium in an amount equal to a removed amount. The ROCK inhibitor (Y-27632, Wako Pure Chemical Co.) was added to a part of the medium of the cell culture substrate on which the 201B7 strain is seeded from Day 9 of culturing or Day 13 of the culturing so that the final concentration of the ROCK inhibitor was 20 μM, and the culturing was performed for 3 weeks.
A secretion amount of hCG, which is one of trophoblast differentiation markers, was quantified by using the recovered culture supernatant. For the quantification, a value of OD450 was detected with an absorbance plate reader (Corona Electric Co. Ltd.) by using a Human hCG ELISA Kit (Abcam Co.). Details of an ELISA reaction and a measurement method followed a manual of a kit.

With C[C@@H](N)[C@H]1CC[C@H](C(=O)Nc2ccncc2)CC1 [ROCK inhibitor, Y-27632] the “differentiation into trophoblast cells” value ([1]; 253G1 strain on planar mesh coated with parylene or Au, addition of the ROCK inhibitor) was “promoted”, the “secretion amount of hCG, increase as compared with the case where the ROCK inhibitor was not added” value ([1]; mesh coated with Au, 20 μM added from Day 9 of culturing, on Day 17) was “about twice” and the “secretion amount of hCG, increase as compared with the case where the ROCK inhibitor was not added” value ([1]; mesh coated with Au, 20 μM added from Day 9 of culturing, on Day 21) was “about three times”. For the same compound, the “secretion amount of hCG, course after the increase” value ([1]; mesh coated with Au, 20 μM added from Day 13 of culturing) was “the secretion amount was maintained thereafter”, the “secretion amount of hCG, increase as compared with the case where the ROCK inhibitor was not added” value ([1]; mesh coated with Au, 20 μM added from Day 13 of culturing, on Day 17) was “five times” and the “secretion amount of hCG, course after the increase” value ([1]; mesh coated with parylene, 20 μM added from Day 9 of culturing) was “the secretion amount was maintained thereafter”. For the same compound, the “secretion amount of hCG, increase as compared with the case where the ROCK inhibitor was not added” value ([1]; mesh coated with parylene, 20 μM added from Day 9 of culturing, on Day 17) was “about ten times”, the “secretion amount of hCG, increase as compared with the case where the ROCK inhibitor was not added” value ([1]; mesh coated with parylene, 20 μM added from Day 13 of culturing, on Day 21) was “three times” and the differentiation into trophoblast ([2]; 201B7 strain on planar mesh coated with parylene or Au, re-addition of the ROCK inhibitor) was “promoted”. For the same compound, the “secretion amount of hCG, increase as compared with the case where the ROCK inhibitor was not added” value ([2]; 201B7 strain, mesh coated with Au, 20 μM added from Day 9 of culturing, on Day 17) was “about twice”, the “secretion amount of hCG, increase as compared with the case where the ROCK inhibitor was not added” value ([2]; 201B7 strain, mesh coated with Au, 20 μM added from Day 9 of culturing, on Day 21) was “four times” and the “secretion amount of hCG, course after the increase” value ([2]; 201B7 strain, mesh coated with Au, 20 μM added from Day 13 of culturing, after Day 17) was “the secretion amount was maintained thereafter”. For the same compound, the “secretion amount of hCG, increase as compared with the case where the ROCK inhibitor was not added” value ([2]; 201B7 strain, mesh coated with Au, 20 μM added from Day 13 of culturing, on Day 17) was “about three times”, the “secretion amount of hCG, course after the increase” value ([2]; 201B7 strain, mesh coated with parylene, 20 μM added from Day 9 of culturing, after Day 13) was “the secretion amount was maintained thereafter” and the “secretion amount of hCG, increase as compared with a case where the ROCK inhibitor was not added” value ([2]; 201B7 strain, mesh coated with parylene, 20 μM added from Day 9 of culturing, on Day 13) was “about twice”. For the same compound, the “secretion amount of hCG, increase as compared with the case where the ROCK inhibitor was not added” value ([2]; 201B7 strain, mesh coated with parylene, 20 μM added from Day 13 of culturing, on Day 17) was “about twice” and the “secretion amount of hCG, increase as compared with the case where the ROCK inhibitor was not added” value ([2]; 201B7 strain, mesh coated with parylene, 20 μM added from Day 13 of culturing, on Day 21) was “about three times”.
